{
  "source": "patent US7655655B1",
  "about": "“Method for facilitating extinction training using D-cycloserine” (priority 2009, dated 2010)",
  "key": {"rats": {"system": "rats", "details": "cited from earlier work"}, "Sprague Dawley rats": {"system": "Sprague Dawley rats", "experiment": "Extinction of fear-potentiated startle in rats with post-extinction training pre-sleep administration", "type": "in vivo, rat", "details": "higher values signify greater extinction", "protocol": "Subjects. Twenty male, Sprague Dawley rats (300-350 grams) were used. Rats were placed in cages used to measure the acoustic startle reflex (Cassella, J. V., and Davis, M. “The design and calibration of a startle measurement system”, Physiology & Behavior (1986), 36, pp. 377-383) and, after a 5 minute acclimation period, presented with 50 startle stimuli (50-ms duration, 5-ms rise-decay time), 10 at each of five intensities (95, 100, 105, 110, and 115 dB) in a semi-random order at a 30-s interstimulus interval. The animals were subsequently divided into four groups of five rats, each having similar mean startle amplitudes across the 10 stimuli at the five intensities.\nFear conditioning and testing. On two consecutive training days, animals were placed in the startle chambers and after a 5-min acclimation period, presented with 10 light shock pairings. The shock was presented during the last 500 ms of the 3,700-ms light at an average intertrial interval of 3 minutes (range, 2-4 min). No further shocks were presented thereafter. Twenty-four hours after the second training day, rats were placed in the startle chamber and presented with 30 95-dB startle stimuli (leaders), followed by the first of 10 startle stimuli presented 3.2 seconds after onset of the light that had previously been paired with a shock, and 10 more startle stimuli alone. The two trial types (light-startle and startle-alone) were presented in an irregular balanced order at a 30-s interstimulus interval. Based on the mean difference in startle amplitude between the mean startle amplitude across the last 10 leaders and the mean startle amplitude across the light-startle trials, a percent fear-potentiated startle was computed as: [(mean difference in startle amplitude between the light-startle and leaders)/mean leaders]×100. The rats were divided into four groups.\nExtinction training with or without sleep deprivation. […] Although sleep was not measured directly, the rats were observed on closed-circuit TV and appeared to sleep (rats tend to sleep in the day, when the lights are on). […]"}, "[1]": {"details": "cited from earlier work"}, "subjects with acrophobia": {"system": "subjects with acrophobia", "details": "DCS administered prior to virtual reality therapy sessions, versus placebo; cited from earlier work"}, "[2]": {"system": "Mycobacterium tuberculosis strains", "details": "typical Mycobacterium tuberculosis strains; cited from earlier work"}, "[3]": {"system": "subjects chronically ill with tuberculosis", "details": "chronic dosing schedules, typical tuberculosis doses 500-1000 mg/day; cited from earlier work"}},
  "note": "Where two headings read alike, the source gives them in different places.",
  "data": [
    {"smiles": "N[C@@H]1CON=C1O", "note": "[DCS, D-cycloserine]", "values": [
      {"measurement": "effect on extinction learning", "setting": "rats; DCS injected after extinction training", "result": "facilitated extinction learning"},
      {"measurement": "effect on extinction learning", "setting": "rats; delay between extinction training and administration of DCS increased to four hours", "result": "no significant facilitatory effect"},
      {"measurement": "mean change in percent fear-potentiated startle prior to and after extinction training", "setting": "Sprague Dawley rats; DCS-DCS group: 15 mg/kg DCS i.p. 15 min before extinction training and again pre-sleep 4 h after training, n=3", "result": 176, "unit": "%"},
      {"measurement": "mean change in percent fear-potentiated startle prior to and after extinction training", "setting": "Sprague Dawley rats; DCS-Sal group: 15 mg/kg DCS i.p. 15 min before extinction training, saline pre-sleep 4 h after training, n=3", "result": 78, "unit": "%"},
      {"measurement": "mean change in percent fear-potentiated startle prior to and after extinction training", "setting": "Sprague Dawley rats; Sal-DCS group: saline i.p. 15 min before extinction training, 15 mg/kg DCS i.p. pre-sleep 4 h after training, n=4", "result": 164, "unit": "%"},
      {"measurement": "peak serum concentrations", "setting": "[1]; child subject, sub-antimicrobial dose less than or equal to 2 mg/kg", "result": "less than or equal to 5 μg/mL"},
      {"measurement": "serum concentrations generally maintained", "setting": "[1]; dose of 500 mg/day, chronic treatment of tuberculosis", "result": "25000 to 30000", "unit": "ng/mL"},
      {"measurement": "time of peak serum concentrations after dosing", "setting": "[1]; known oral capsules", "result": "3 to 8", "unit": "h"},
      {"measurement": "peak serum concentrations", "setting": "[1]; sub-antimicrobial dose, less than or equal to 2 mg/kg, substantial variability between subjects", "result": "less than or equal to 5 μg/mL"},
      {"measurement": "number of therapy sessions required to reach a defined clinical endpoint", "setting": "subjects with acrophobia", "result": "significant reduction"},
      {"measurement": "minimum inhibitory concentrations (MIC) in vitro", "setting": "[2]", "result": "6 to 25", "unit": "µg/mL"},
      {"measurement": "recorded side effects", "setting": "[3]", "result": "drowsiness, depression, headache, confusion, tremor, vertigo, and memory difficulties, paresthesias, and seizure"}
    ]}
  ]
}
